Experimental data: patent US20200405696A1, “INHIBITORS OF INDOLEAMINE 2,3-DIOXYGENASE AND/OR TRYPTOPHAN 2,3-DIOXYGENASE” (IDORSIA PHARMACEUTICALS LTD, priority 2018, published 2020)

Key:
[1] = molecular target: T1, Recombinant human TDO comprising amino acids 19-407 (Homo sapiens, UniProt P48775); assay: TDO2 enzymatic assay (NFK quantified by LCMS); type: biochemical; settings: 15 nM enzyme, 200 μM L-tryptophan, pH7, 30 minutes pre-incubation at RT; mean values when measured multiple times; read-out: hTDO activity (IC50 in nM)
T1 construct: Recombinant human TDO comprising amino acids 19-407 with a N-terminal hexahistidine tag; hexahistidine (His6) (N); made in house; host or cells: E. coli
T1 sequence (P48775 19-406 limits assumed): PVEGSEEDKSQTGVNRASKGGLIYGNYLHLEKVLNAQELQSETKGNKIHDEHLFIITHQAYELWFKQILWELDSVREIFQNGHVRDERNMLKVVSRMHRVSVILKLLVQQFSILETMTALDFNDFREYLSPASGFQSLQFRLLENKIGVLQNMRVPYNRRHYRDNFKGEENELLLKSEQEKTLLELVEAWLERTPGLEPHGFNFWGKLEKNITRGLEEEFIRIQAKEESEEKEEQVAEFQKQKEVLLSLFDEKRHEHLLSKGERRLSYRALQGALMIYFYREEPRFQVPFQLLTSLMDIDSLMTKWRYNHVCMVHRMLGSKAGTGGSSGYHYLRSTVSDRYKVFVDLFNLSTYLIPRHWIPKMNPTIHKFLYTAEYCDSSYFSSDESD
In short: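 NFK formed over 30 min at RT from 200 μM L-tryptophan was measured by LCMS, normalized to d5-tryptophan, after compound (0.5 nM–10 μM, duplicates, 0.6% DMSO) was preincubated 30 min with 15 nM recombinant His-tagged TDO 19-407 in phosphate buffer pH 7. IC50 from four-parameter logistic fit; repeats averaged.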

[2] = molecular target: T2, Recombinant full-length human IDO1 (Homo sapiens, UniProt P14902); assay: IDO1 enzymatic assay (NFK quantified by LCMS); type: biochemical; settings: 2 nM enzyme, 5 μM L-tryptophan, pH6.5, 30 minutes pre-incubation at RT; mean values when measured multiple times; read-out: hIDO activity (IC50 in nM)
T2 construct: Recombinant full-length human IDO1 with a N-terminal hexahistidine tag; hexahistidine (His6) (N); made in house; host or cells: E. coli
T2 sequence (P14902 whole entry): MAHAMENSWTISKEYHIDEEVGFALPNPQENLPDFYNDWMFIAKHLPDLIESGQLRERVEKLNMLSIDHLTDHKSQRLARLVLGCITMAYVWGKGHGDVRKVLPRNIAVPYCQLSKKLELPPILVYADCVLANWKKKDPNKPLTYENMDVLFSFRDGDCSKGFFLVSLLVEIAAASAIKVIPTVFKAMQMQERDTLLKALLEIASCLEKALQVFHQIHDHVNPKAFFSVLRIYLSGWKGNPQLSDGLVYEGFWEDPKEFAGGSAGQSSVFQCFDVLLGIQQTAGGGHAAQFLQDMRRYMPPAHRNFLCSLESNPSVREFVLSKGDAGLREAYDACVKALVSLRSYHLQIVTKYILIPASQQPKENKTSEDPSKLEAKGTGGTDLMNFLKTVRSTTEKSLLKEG
In short: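 His-tagged human IDO1 (2 nM) in pH 6.5 phosphate buffer with ascorbate, methylene blue and catalase was preincubated with compound (10 μM–0.5 nM, 0.6% DMSO) for 30 min at RT. The reaction then ran with 5 μM L-Trp for 30 min. NFK was measured by LCMS against a d5-Trp standard, and IC50 was obtained by four-parameter fit.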

IC50 [1] [nM]	IC50 [2] [nM]	Compound
> 10200	11.1	OCCCOc1ccc(-n2cc(C(O)c3c(C4CC4)sc4cncn34)nn2)cc1 (racemic) [Example 137, rac-3-(4-{4-[(2-Cyclopropyl-imidazo[5,1-b]thiazol-3-yl)-hydroxy-methyl]-[1,2,3]triazol-1-yl}-phenoxy)-propan-1-ol]
> 10200	179	OC(c1cn(-c2ccc(OCC3(F)COC3)c(Cl)c2)nn1)c1c(-c2ccccc2)sc2cncn12 (racemic) [Example 266, rac-{1-[3-Chloro-4-(3-fluoro-oxetan-3-ylmethoxy)-phenyl]-1H-[1,2,3]triazol-4-yl}-(2-phenyl-imidazo[5,1-b]thiazol-3-yl)-methanol]
> 10200	29.1	COc1ccc(-n2cc(C(O)c3c(C4CC4)sc4cncn34)nn2)cc1O (racemic) [Example 216, rac-5-{4-[(2-Cyclopropyl-imidazo[5,1-b]thiazol-3-yl)-hydroxy-methyl]-[1,2,3]triazol-1-yl}-2-methoxy-phenol]
> 10200	17.3	O=C(NCCO)c1ccc(-n2cc(C(O)c3c(C4CC4)sc4cncn34)nn2)cc1 (racemic) [Example 186, rac-4-{4-[(2-Cyclopropyl-imidazo[5,1-b]thiazol-3-yl)-hydroxy-methyl]-[1,2,3]triazol-1-yl}-N-(2-hydroxy-ethyl)-benzamide]
> 10200	109	CCc1sc2cncn2c1C(O)c1cn(-c2ccc(C(=O)N(C)CC)cc2)nn1 (racemic) [Example 124, rac-N-Ethyl-4-{4-[(2-ethyl-imidazo[5,1-b]thiazol-3-yl)-hydroxy-methyl]-[1,2,3]triazol-1-yl}-N-methyl-benzamide]
> 10200	21.9	OC(c1cn(-c2ccc3c(c2)OCCO3)nn1)c1c(C2CC2)sc2cncn12 (racemic) [Example 39, rac-(2-Cyclopropyl-imidazo[5,1-b]thiazol-3-yl)-[1-(2,3-dihydro-benzo[1,4]dioxin-6-yl)-1H-[1,2,3]triazol-4-yl]-methanol]
5440	466	OC(c1cnn(-c2ccccc2)n1)c1c(C2CC2)sc2cncn12 (racemic) [Example 158, rac-(2-Cyclopropyl-imidazo[5,1-b]thiazol-3-yl)-(2-phenyl-2H-[1,2,3]triazol-4-yl)-methanol]
> 10200	95.8	OC(c1cn(-c2cccnc2)nn1)c1c(C2CC2)sc2cncn12 (racemic) [Example 15, rac-(2-Cyclopropyl-imidazo[5,1-b]thiazol-3-yl)-(1-pyridin-3-yl-1H-[1,2,3]triazol-4-yl)-methanol]
2070	25.6	CCCCNC(=O)Nc1ccc(-n2cc(C(O)c3c(CC)sc4cncn34)nn2)cc1 (racemic) [Example 122, rac-1-Butyl-3-(4-{4-[(2-ethyl-imidazo[5,1-b]thiazol-3-yl)-hydroxy-methyl]-[1,2,3]triazol-1-yl}-phenyl)-urea]
> 10200	164	COc1ccc(-n2cc(C(O)c3c(C4CC4)sc4cncn34)cn2)cn1 (racemic) [Example 223, rac-(2-Cyclopropyl-imidazo[5,1-b]thiazol-3-yl)-[1-(6-methoxy-pyridin-3-yl)-1H-pyrazol-4-yl]-methanol]
10000	123	CC(C)(O)CCOc1ccc(-n2cc([C@H](O)c3c(-c4ccccc4)sc4cncn34)nn2)cc1Cl [Example 268a, 4-(2-Chloro-4-{4-[(R)-hydroxy-(2-phenyl-imidazo[5,1-b]thiazol-3-yl)-methyl]-[1,2,3]triazol-1-yl}-phenoxy)-2-methyl-butan-2-ol]
> 10200	29.4	OC(c1cn(-c2ccc(OCCOCC(F)(F)F)cc2)nn1)c1c(C2CC2)sc2cncn12 (racemic) [Example 312, rac-(2-Cyclopropyl-imidazo[5,1-b]thiazol-3-yl)-(1-{4-[2-(2,2,2-trifluoro-ethoxy)-ethoxy]-phenyl}-1H-[1,2,3]triazol-4-yl)-methanol]
> 10200	35.5	COc1cccc(-n2cc(C(O)c3c(C4CC4)sc4cncn34)nn2)c1 (racemic) [Example 8, rac-(2-Cyclopropyl-imidazo[5,1-b]thiazol-3-yl)-[1-(3-methoxy-phenyl)-1H-[1,2,3]triazol-4-yl]-methanol]
> 10200	292	CN(C)CCOc1ccc(-n2cc(C(O)c3c(C4CC4)sc4cncn34)nn2)cc1 (racemic) [Example 204, rac-(2-Cyclopropyl-imidazo[5,1-b]thiazol-3-yl)-{1-[4-(2-dimethylamino-ethoxy)-phenyl]-1H-[1,2,3]triazol-4-yl}-methanol]
> 10200	5.98	COc1ccc(-n2cc([C@H](O)c3c(C4CC4)sc4cncn34)nn2)cc1 [Example 9a, (R)-(2-Cyclopropyl-imidazo[5,1-b]thiazol-3-yl)-[1-(4-methoxy-phenyl)-1H-[1,2,3]triazol-4-yl]-methanol]
5210	12.3	CCc1sc2cncn2c1C(O)c1cn(-c2ccc(C(N)=O)cc2)nn1 (racemic) [Example 116, rac-4-{4-[(2-Ethyl-imidazo[5,1-b]thiazol-3-yl)-hydroxy-methyl]-[1,2,3]triazol-1-yl}-benzamide]
> 10200	22.3	CCOC(=O)COc1ccc(-n2cc(C(O)c3c(C4CC4)sc4cncn34)nn2)cc1 (racemic) [Example 231, rac-(4-{4-[(2-Cyclopropyl-imidazo[5,1-b]thiazol-3-yl)-hydroxy-methyl]-[1,2,3]triazol-1-yl}-phenoxy)-acetic acid ethyl ester]
9160	50.2	COc1ncc(-n2cc(C(O)c3c(C4CC4)sc4cncn34)nn2)cn1 (racemic) [Example 67, rac-(2-Cyclopropyl-imidazo[5,1-b]thiazol-3-yl)-[1-(2-methoxy-pyrimidin-5-yl)-1H-[1,2,3]triazol-4-yl]-methanol]
7480	28.3	CCc1sc2cncn2c1C(O)c1cn(-c2ccc(S(N)(=O)=O)cc2)nn1 (racemic) [Example 240, rac-4-{4-[(2-Ethyl-imidazo[5,1-b]thiazol-3-yl)-hydroxy-methyl]-[1,2,3]triazol-1-yl}-benzenesulfonamide]
> 10200	74.8	COc1ccc(-n2cc(C(O)c3c(-c4ccccc4)sc4cncn34)nn2)cc1 (racemic) [Example 249, rac-[1-(4-Methoxy-phenyl)-1H-[1,2,3]triazol-4-yl]-(2-phenyl-imidazo[5,1-b]thiazol-3-yl)-methanol]
1770	18.2	COC(=O)Nc1ccc(-n2cc(C(O)c3c(C4CC4)sc4cncn34)cn2)cc1 (racemic) [Example 132, rac-(4-{4-[(2-Cyclopropyl-imidazo[5,1-b]thiazol-3-yl)-hydroxy-methyl]-pyrazol-1-yl}-phenyl)-carbamic Acid Methyl Ester]
> 10200	25.1	C=C(C)c1sc2cncn2c1C(O)c1cn(-c2ccc(OCCCO)c(Cl)c2)nn1 (racemic) [Example 301, rac-3-(2-Chloro-4-{4-[hydroxy-(2-isopropenyl-imidazo[5,1-b]thiazol-3-yl)-methyl]-[1,2,3]triazol-1-yl}-phenoxy)-propan-1-ol]
> 10200	15.1	COc1c(F)cc(-n2cc(C(O)c3c(C4CC4)sc4cncn34)nn2)cc1Cl (racemic) [Example 288, rac-[1-(3-Chloro-5-fluoro-4-methoxy-phenyl)-1H-[1,2,3]triazol-4-yl]-(2-cyclopropyl-imidazo[5,1-b]thiazol-3-yl)-methanol]
3570	31.8	COc1ccc(-n2cc(C(O)c3c(C4CC4)sc4cncn34)cn2)cc1 (racemic) [Example 99, rac-(2-Cyclopropyl-imidazo[5,1-b]thiazol-3-yl)-[1-(4-methoxy-phenyl)-1H-pyrazol-4-yl]-methanol]
> 10200	63.2	Oc1cc(-n2cc(C(O)c3c(C4CC4)sc4cncn34)nn2)cc(C(F)(F)F)c1 (racemic) [Example 219, rac-3-{4-[(2-Cyclopropyl-imidazo[5,1-b]thiazol-3-yl)-hydroxy-methyl]-[1,2,3]triazol-1-yl}-5-trifluoromethyl-phenol]
> 10200	210	CC(C)(O)CCOc1ccc(-n2cc(C(O)c3c(-c4ccccc4)sc4cncn34)nn2)cc1Cl (racemic) [Example 268, rac-4-(2-Chloro-4-{4-[hydroxy-(2-phenyl-imidazo[5,1-b]thiazol-3-yl)-methyl]-[1,2,3]triazol-1-yl}-phenoxy)-2-methyl-butan-2-ol]
6740	20.8	CCc1sc2cncn2c1C(O)c1cn(-c2ccccc2)nn1 (racemic) [Example 12, rac-(2-Ethyl-imidazo[5,1-b]thiazol-3-yl)-(1-phenyl-1H-[1,2,3]triazol-4-yl)-methanol]
> 10200	52.4	COc1cc(-n2cc(C(O)c3c(C4CC4)sc4cncn34)nn2)cc(C#N)c1OC (racemic) [Example 198, rac-5-{4-[(2-Cyclopropyl-imidazo[5,1-b]thiazol-3-yl)-hydroxy-methyl]-[1,2,3]triazol-1-yl}-2,3-dimethoxy-benzonitrile]
